From publication PMC7604503, “Cyclic peptides can engage a single binding pocket through highly divergent modes” (Proceedings of the National Academy of Sciences of the …, 2020)
Where a SMILES comes first, the peptide text is derived from it. Bridges are numbered along the chain shown (N, C = ends).

Tests used:
[1] = tested on: other BD families (non-BET BDs); test: BROMOscan competition binding assay, stated for the non-BET bromodomains together; design: species or system human; conditions: peptide concentration 1 μM
Source text: Again, remarkable specificity was observed.

[2] = biological target: T1, TAF1(2) (Homo sapiens, UniProt P21675); test: BROMOscan competition binding assay (BromoMAX, Eurofins DiscoverX); conditions: for Percent Control TAF1(2): compound concentration 1000 nM, lower percentage control = stronger affinity
T1 construct: TAF1(2); purchased Eurofins DiscoverX (BROMOscan, BromoMAX)
T1 sequence (P21675 1521-1656 limits assumed): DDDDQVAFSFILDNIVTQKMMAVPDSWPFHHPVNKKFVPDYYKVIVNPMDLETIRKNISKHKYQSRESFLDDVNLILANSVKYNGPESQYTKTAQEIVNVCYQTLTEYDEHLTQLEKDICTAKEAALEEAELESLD

[3] = biological target: T2, TRIM24(PHD,Bromo.) (Homo sapiens, UniProt O15164); test: as above; conditions: for Percent Control TRIM24(PHD,Bromo.): compound concentration 1000 nM, lower percentage control = stronger affinity
T2 construct: purchased Eurofins DiscoverX (BROMOscan, BromoMAX)
T2 sequence (O15164 824-1006 limits assumed): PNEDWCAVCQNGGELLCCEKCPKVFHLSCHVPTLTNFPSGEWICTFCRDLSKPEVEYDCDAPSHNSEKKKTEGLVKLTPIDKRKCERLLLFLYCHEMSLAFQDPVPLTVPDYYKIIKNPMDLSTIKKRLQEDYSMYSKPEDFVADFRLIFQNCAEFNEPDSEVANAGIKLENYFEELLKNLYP

[4] = tested on: BD1 domains (BRD2-BD1, BRD3-BD1, BRD4-BD1); test: SPR binding, stated for the BD1 domains together; design: species or system human
Method: (§1) We next assessed the ability of each of the three lead peptides to bind BRD3-BD1. […] To assess selectivity for other BET BDs, we used SPR to determine the binding affinity of each peptide toward the remaining BDs from BRD2, BRD3, and BRD4 (Fig. 1B). […]
(§2) Peptides were synthesised as C-terminal amides using standard fluorenylmethyloxycarbonyl (Fmoc)-strategy solid-phase chemistry using a Syro I automated synthesiser (Biotage) and NovaPEG Rink Amide resin (Novabiochem). Couplings were performed with HBTU/HOBt (1:1) and 6 equivalents of each amino acid. Double couplings were performed for arginine residues.
(§3) Following the final amino acid coupling reaction, the Fmoc group was removed and resin incubated with N-(chloroacetoxy)succinimide (0.2 M in DMF, 1 h, RT). Resin was washed with DMF (5 times) and DCM (5 times) and dried in vacuo.
(§4) Linear peptides were cleaved from the resin by incubation (3 h, RT) with a trifluoroacetic acid (TFA) cleavage cocktail (TFA/2,2’-(ethylenedioxy)diethanethiol/triisopropyl silane/H2O (92.5:2.5:2.5:2.5)) before filtration, concentration in vacuo and precipitation with ice-cold diethyl ether. Crude peptides were washed with diethyl ether (5 times), dried and resuspended in DMSO. The pH was raised to >8 using triethylamine to allow cyclisation. Following incubation (1 h, RT), peptides were re-acidified with TFA for purification.
(§5) Crude peptides were purified by reverse-phase high-performance liquid chromatography using a Chromolith Prep column (Merck) on a Prominence LC-20AP system (Shimadzu) (Solvent A: 0.1% TFA in H2O, Solvent B: 0.1% TFA in acetonitrile) to >95% purity as determined by mass spectrometry (Fig. S17). Purified peptides were reconstituted in DMSO and concentrations determined from their absorbance at 280 nm in 5% DMSO using predicted extinction coefficients.
(§6) Surface plasmon resonance (SPR)
(§7) Measurements were conducted on a T200 or S200 (GE Healthcare) and data analysed using the Biacore Insight Evaluation Software. Experiments were performed at 4 °C in single cycle kinetics mode. Biotinylated BET bromodomains were immobilised on a CAP chip (GE Healthcare) with a […]
(§8) pH 7.5 was used as the running buffer. […]

[5] = biological target: T3, BRD3-BD2 (Homo sapiens, UniProt Q15059); test: SPR binding of peptides to immobilised biotinylated BET bromodomain
T3 construct: Avi tag (biotinylated); made in house; host or cells: E. coli BL21(DE3)
Method: as §1, §2, §3, §4, §5, §6, §7, §8

[6] = biological target: T4, BRD4-BD2 (Homo sapiens, UniProt O60885); test: as above
T4 construct: BRD4 (BD1: 42-168; BD2: 348-464); Avi tag (biotinylated); made in house; host or cells: E. coli BL21(DE3)
Method: as §1, §2, §3, §4, §5, §6, §7, §8

[7] = biological target: T5, BRD4-BD1 (Homo sapiens, UniProt O60885); test: as above
T5 construct: BRD4 (BD1: 42-168; BD2: 348-464); Avi tag (biotinylated); made in house; host or cells: E. coli Rosetta2(DE3)
Method: as §1, §2, §3, §4, §5, §6, §7, §8

[8] = biological target: SMARCA4 (Homo sapiens, UniProt P51532); conditions: compound concentration 1000 nM; lower percentage control = stronger affinity
[9] = biological target: T6, GCN5L2 (Homo sapiens, UniProt Q92830); test: BROMOscan competition binding assay (BromoMAX, Eurofins DiscoverX); conditions: for Percent Control GCN5L2: compound concentration 1000 nM, lower percentage control = stronger affinity
T6 construct: purchased Eurofins DiscoverX (BROMOscan, BromoMAX)

[10] = biological target: T7, FALZ (Homo sapiens, UniProt Q12830); test: as above; conditions: for Percent Control FALZ: compound concentration 1000 nM, lower percentage control = stronger affinity
T7 construct: purchased Eurofins DiscoverX (BROMOscan, BromoMAX)

[11] = biological target: T8, BRD2-BD2 (Homo sapiens, UniProt P25440); test: 15N-HSQC NMR titration, CSPs fitted to 1:1 binding model; conditions: 15N-HSQC titration, simple 1:1 binding model; read-out: binding affinity for BRD2-BD2 from CSP data
T8 construct: human BRD2 (BD1: 65-194; BD2: 347-455); Avi tag (biotinylated); made in house; host or cells: E. coli BL21(DE3)

[12] = gray boxed value: no reproducible signals observed at the concentrations used
[13] = 4 C, geometric mean and SD of two to five measurements

For `CC[C@H](C)[C@@H]1NC(=O)[C@H]([C@@H](C)O)NC(=O)[C@H](CCCCN)NC(=O)[C@H](Cc2c[nH]c3ccccc23)NC(=O)CSC[C@@H](C(N)=O)NC(=O)[C@H](CCC(N)=O)NC(=O)[C@H](CCCCNC(C)=O)NC(=O)[C@H]([C@@H](C)O)NC(=O)[C@H](CCCNC(=N)N)NC(=O)[C@H](Cc2c[nH]c3ccccc23)NC(=O)[C@H]([C@@H](C)O)NC(=O)[C@H](CCCCNC(C)=O)NC(=O)CNC(=O)[C@H](CCCCNC(C)=O)NC1=O` [3.1B] ({CH2CO}-WKTIK(Ac)GK(Ac)TWRTK(Ac)QC-NH2; thioether N-14), the “binding to other (non-BET) BD families (in words)” value [1] was “almost no binding”, the “Percent Control TAF1(2)” value [2] was 82% and the “Percent Control TRIM24(PHD,Bromo.)” value [3] was 91%. The “affinity for BRD2-BD1 and BRD4-BD1 within a factor of the affinity for BRD3-BD1” value [4] was 2 to 4 factor, the Kd [5, 12] was greater than 10000 nM and the Kd [6, 12] was greater than 10000 nM. The Kd [7, 13] was 0.55 ± 0.33 nM, the “Percent Control SMARCA4” value [8] was 77% and the “Percent Control GCN5L2” value [9] was 100%. The “Percent Control FALZ” value [10] was 73% and the Kd [11] was roughly 300000 nM.

For `CC[C@H](C)[C@@H]1NC(=O)[C@H](Cc2c[nH]c3ccccc23)NC(=O)[C@H](Cc2c[nH]c3ccccc23)NC(=O)CSC[C@@H](C(N)=O)NC(=O)CNC(=O)[C@H](CCCCNC(C)=O)NC(=O)[C@H](CCCCN)NC(=O)[C@H](C(C)C)NC(=O)[C@H](CCCCNC(C)=O)NC(=O)[C@@H]2CCCN2C(=O)[C@H]([C@@H](C)CC)NC1=O` [3.1C] ({CH2CO}-WWIIPK(Ac)VKK(Ac)GC-NH2; thioether N-11), the “binding to other (non-BET) BD families (in words)” value [1] was “almost no binding”, the “Percent Control TAF1(2)” value [2] was 79% and the “Percent Control TRIM24(PHD,Bromo.)” value [3] was 94%. For the same molecule, the “affinity for BRD2-BD1 and BRD4-BD1 within a factor of the affinity for BRD3-BD1” value [4] was 2 to 4 factor, the Kd [5, 13] was 13 ± 12 nM and the Kd [6, 13] was 340 ± 350 nM. For the same molecule, the Kd [7, 13] was 0.35 ± 0.1 nM, the “Percent Control SMARCA4” value [8] was 87% and the “Percent Control GCN5L2” value [9] was 100%. For the same molecule, the “Percent Control FALZ” value [10] was 93%.

`CC[C@H](C)[C@H](NC(=O)[C@H](CCCNC(=N)N)NC(=O)[C@H](CCCCNC(C)=O)NC(=O)[C@H](CCCNC(=N)N)NC(=O)[C@H](CC(C)C)NC(=O)[C@@H]1CSCC(=O)N[C@@H](Cc2c[nH]c3ccccc23)C(=O)N[C@@H](CCCCNC(C)=O)C(=O)NCC(=O)N[C@@H](Cc2ccc(O)cc2)C(=O)N[C@@H](CC(C)C)C(=O)N1)C(=O)N[C@@H](CCC(N)=O)C(=O)N[C@@H](CCCNC(=N)N)C(=O)N[C@H](C(=O)N[C@@H](Cc1ccc(O)cc1)C(=O)N[C@@H](CC(N)=O)C(N)=O)[C@@H](C)O` [4.2C] ({CH2CO}-WK(Ac)GYLCLRK(Ac)RIQRTYN-NH2; thioether N-6) was tested, and the percent of control binding at 1 µM [2] was 67%, the percent of control binding at 1 µM [3] was 98% and the Kd [5, 13] was 110 ± 116 nM. The Kd [6, 13] was 36 ± 35 nM, the Kd [7, 12] was greater than 10000 nM and the percent of control binding at 1 µM [9] was 96%. The remaining binding at 1 µM ([10]; read-out: Percent Control FALZ) was 96%.
